Test results taken from patent US20230157952A1, “METHOD FOR IMPROVING THE STABILITY OF A PHARMACEUTICAL COMPOSITION COMPRISING A HIGH PENETRATION DRUG, AND THE PHARMACEUTICAL COMPOSITION OBTAINED THEREFROM” (Techfields Inc., priority 2020, published 2023).
Non-standard residues stand in square brackets, D forms with d. *: point of attachment. Arg(NO2) = N=C(NCCC[C@H](N)C(=O)O)N[N+](=O)[O-]; OiPr = CC(C)O*

Key:
Type in all cases: physicochemical
[1] = Stability of the pure HPDs (dry solid) at 25° C./RH 60%; settings: for Purity: pure HPD, 25° C./RH 60%; for Stability of the pure powder: room temperature (25° C./RH 60%); for Purity at 3 month / Purity at 6 month / Purity at 9 month / Purity at 12 month / Purity at 18 month / Purity at 24 month / Purity at Day 0: pure HPD at 25° C./RH 60%
[2] = Effect of pH value on the stability of the solution (purity); settings: for Purity(%) from day 0-14 / Purity(%) from day 0-28: 25° C.; for pH at which the solution is stable: 5% solution in 25% ethanol at 25° C.; for Time the solution can be stored at room temperature: 5% solution in 25% ethanol, pH 3-6
[3] = Effect of temperature (and pH) on the stability of the solution (purity); settings: 5% solution with 1 equivalent sodium acetate in 25% ethanol, pH 4.49-4.51

CCCCC(=O)O.CCN(CC)CCOC(=O)c1ccccc1OC(C)=O [A-4, 2-(diethylamino)ethyl acetylsalicylate•valeric acid]
Purity ([1]; 6 month): 98.6 ± 0.1 | Purity ([1]; 12 month): 98.0 ± 0.2 | Purity ([1]; 18 month): 97.9 ± 0.2 | Purity ([1]; 24 month): 97.2 ± 0.1 | Purity ([1]; Day 0): 98.6 ± 0.2 | Purity(%) from day 0-14 ([2]; day 14, pH 1.0, 7% in water): 58.1 ± 0.3% | Purity(%) from day 0-14 ([2]; day 14, pH 2.0, 7% in water): 77.3 ± 0.2% | Purity(%) from day 0-14 ([2]; day 14, pH 3.0, 7% in water): 87.5 ± 0.3% | Purity(%) from day 0-14 ([2]; day 14, pH 3.7, 7% in water): 93.2 ± 0.3% | Purity(%) from day 0-14 ([2]; day 14, pH 4.0, 7% in water): 94.2 ± 0.4% | Purity(%) from day 0-14 ([2]; day 14, pH 4.3, 7% in water): 94.7 ± 0.2% | Purity(%) from day 0-14 ([2]; day 14, pH 4.6, 7% in water): 94.0 ± 0.2% | Purity(%) from day 0-14 ([2]; day 14, pH 5.0, 7% in water): 85.5 ± 0.4% | Purity(%) from day 0-14 ([2]; day 14, pH 6.0, 7% in water): 77.3 ± 0.3% | Purity(%) from day 0-14 ([2]; day 14, pH 7.0, 7% in water): 52.5 ± 0.4% | Purity(%) from day 0-14 ([2]; day 14, pH 8.0, 7% in water): 15.2 ± 0.4%

CC(C)Cc1ccc([C@@H](C)C(=O)OC[C@@H]2CCCN2)cc1.Cl [C-7, 2-pyrrolidinemethyl (R,S)-2-(p-isobutylphenyl)propionate•HCl salt]
Purity ([1]; 9 month): 98.1 ± 0.1 | Purity ([1]; 18 month): 98.0 ± 0.3 | Purity ([1]; 24 month): 97.9 ± 0.1 | Purity(%) from day 0-28 ([2]; day 28, pH 1.0, 7% in 25% ethanol): 66.8 ± 0.3% | Purity(%) from day 0-28 ([2]; day 28, pH 2.0, 7% in 25% ethanol): 86.0 ± 0.4% | Purity(%) from day 0-28 ([2]; day 28, pH 3.0, 7% in 25% ethanol): 86.0 ± 0.3% | Purity(%) from day 0-28 ([2]; day 28, pH 3.7, 7% in 25% ethanol): 94.3 ± 0.3% | Purity(%) from day 0-28 ([2]; day 28, pH 4.0, 7% in 25% ethanol): 95.8 ± 0.3% | Purity(%) from day 0-28 ([2]; day 28, pH 4.3, 7% in 25% ethanol): 96.5 ± 0.4% | Purity(%) from day 0-28 ([2]; day 28, pH 4.6, 7% in 25% ethanol): 96.2 ± 0.3% | Purity(%) from day 0-28 ([2]; day 28, pH 5.0, 7% in 25% ethanol): 89.3 ± 0.2% | Purity(%) from day 0-28 ([2]; day 28, pH 6.0, 7% in 25% ethanol): 86.2 ± 0.3% | Purity(%) from day 0-28 ([2]; day 28, pH 7.0, 7% in 25% ethanol): 48.0 ± 0.3% | Purity(%) from day 0-28 ([2]; day 28, pH 8.0, 7% in 25% ethanol): 34.3 ± 0.4%

H-Tyr-Gly-Gly-Phe-Met-OCH(CH3)2.HCl [U-2]
Purity ([1]; 3 month): 98.9 ± 0.3 | Purity ([1]; 6 month): 98.6 ± 0.2 | Purity ([1]; 9 month): 98.6 ± 0.3 | Purity ([1]; 12 month): 98.5 ± 0.2 | Purity ([1]; 18 month): 98.5 ± 0.2 | Purity ([1]; 24 month): 98.4 ± 0.2 | Purity ([1]; Day 0): 98.9 ± 0.1 | Stability of the pure powder [1]: very stable | pH at which the solution is stable [2]: 3-6 | Time the solution can be stored at room temperature [2]: about 1 year

H-Val-Pro-Asp[OCH(CH3)2]-Pro-Arg(NO2)—OCH(CH3)2•HCl [T-3]
Purity (%) at day 30 (60° C.) [3]: 33.2 ± 0.3% | Purity (%) at day 90 (60° C.) [3]: 0% | Purity (%) at day 180 (60° C.) [3]: 0% | Purity (%) at day 360 (60° C.) [3]: 0% | Purity(%) at day 0 [3]: 99.1 ± 0.1% | Purity(%) at day 30 (5° C.) [3]: 98.9 ± 0.2% | Purity(%) at day 30 (25° C.) [3]: 97.9 ± 0.3% | Purity(%) at day 30 (40° C.) [3]: 71.9 ± 0.2% | Purity(%) at day 90 (5° C.) [3]: 98.6 ± 0.3% | Purity(%) at day 90 (25° C.) [3]: 97.2 ± 0.3% | Purity(%) at day 90 (40° C.) [3]: 34.2 ± 0.3% | Purity(%) at day 180 (5° C.) [3]: 97.9 ± 0.2% | Purity(%) at day 180 (25° C.) [3]: 95.2 ± 0.3% | Purity(%) at day 180 (40° C.) [3]: 13.5 ± 0.3% | Purity(%) at day 360 (5° C.) [3]: 97.4 ± 0.3% | Purity(%) at day 360 (25° C.) [3]: 92.5 ± 0.4% | Purity(%) at day 360 (40° C.) [3]: 0% | Purity at 3 month [1]: 99.0 ± 0.2 | Purity at 6 month [1]: 99.0 ± 0.2 | Purity at 9 month [1]: 98.8 ± 0.2 | Purity at 12 month [1]: 98.7 ± 0.0 | Purity at 18 month [1]: 98.6 ± 0.0 | Purity at 24 month [1]: 98.5 ± 0.2 | Purity at Day 0 [1]: 99.1 ± 0.2 | Stability of the pure powder [1]: very stable | pH at which the solution is stable [2]: 3-6 | Time the solution can be stored at room temperature [2]: about 1 year

H-Val-Pro-Gly-Pro-Arg(NO2)—OCH(CH3)2•HCl (H-VPGP[Arg(NO2)]-OiPr; also: HCl salt)
Purity (%) at day 30 (60° C.) [3]: 32.4 ± 0.4% | Purity (%) at day 90 (60° C.) [3]: 0% | Purity (%) at day 180 (60° C.) [3]: 0% | Purity (%) at day 360 (60° C.) [3]: 0% | Purity(%) at day 0 [3]: 98.7 ± 0.2% | Purity(%) at day 30 (5° C.) [3]: 98.5 ± 0.3% | Purity(%) at day 30 (25° C.) [3]: 97.7 ± 0.2% | Purity(%) at day 30 (40° C.) [3]: 71.6 ± 0.2% | Purity(%) at day 90 (5° C.) [3]: 98.4 ± 0.3% | Purity(%) at day 90 (25° C.) [3]: 97.0 ± 0.3% | Purity(%) at day 90 (40° C.) [3]: 32.7 ± 0.3% | Purity(%) at day 180 (5° C.) [3]: 97.8 ± 0.3% | Purity(%) at day 180 (25° C.) [3]: 95.1 ± 0.3% | Purity(%) at day 180 (40° C.) [3]: 12.2 ± 0.3% | Purity(%) at day 360 (5° C.) [3]: 97.3 ± 0.3% | Purity(%) at day 360 (25° C.) [3]: 92.2 ± 0.2% | Purity(%) at day 360 (40° C.) [3]: 0% | Purity at 3 month ([1]; in % (unit assumed)): 98.8 ± 0.2 | Purity at 6 month ([1]; in % (unit assumed)): 98.6 ± 0.2 | Purity at 9 month ([1]; in % (unit assumed)): 98.5 ± 0.2 | Purity at 12 month ([1]; in % (unit assumed)): 98.4 ± 0.3 | Purity at 18 month ([1]; in % (unit assumed)): 98.2 ± 0.3 | Purity at 24 month ([1]; in % (unit assumed)): 98.2 ± 0.2 | Purity at Day 0 ([1]; in % (unit assumed)): 98.7 ± 0.2 | Stability of the pure powder [1]: very stable | pH at which the solution is stable [2]: 3-6 | Time the solution can be stored at room temperature [2]: about 1 year
